Consider three compounds from US6369109B1, “Betulinic acid and derivatives thereof useful for the treatment of neuroectodermal tumor” (Deutsches Krebsforschungszentrum Stiftung des Offentlichen …, priority 1998, dated 2002).

Molecules are shown by their SMILES. Residues, ends and D or L forms follow the SMILES beside them. *: point of attachment. Cbz = O=C(OCc1ccccc1)*; CH2F = FC*

Assay [1] deals with mitochondria isolated from SHEP cells. The experiment in a line: Cytochrome c release from isolated mitochondria (Western blot). The class given is biochemical, human. The conditions noted are these: bongkrekic acid; FIG. 10C. As for the experimental part:
Cells were lysed for 30 min at 4° C. in PBS with 0.5% Triton X (Serva, Heidelberg, Germany) and 1 mM PMSF (Sigma, Deisenhofen, Germany) followed by high-speed centrifugation. Membrane proteins were eluted in buffer containing 0.1 M glycine, pH 3.0 and 1.5 M Tris, pH 8.8. Protein concentration was assayed using bicinchoninic acid (Pierce, Rockford, Ill.). 40 μg protein per lane was separated by 12% or 15% SDS-PAGE and electro blotted onto nitrocellulose (Amersharn, Braunschweig, Germany). Equal protein loading was controlled by Ponceau red staining of membranes. After blocking for 1 h in PBS supplemented with 2% BSA (Sigma) and 0.1% Tween 20 (Sigma), immunodetection of caspases-3 and -8, PARP, and cytochrome c protein was done using mouse anti-caspase-8 mAb C15 (Scaffidi et al., 1997, J. Biol. Chem. 272, 26953-26958, 1:5 dilution of hybridoma supernatant), mouse anti-caspase-3-specific mAb (1:1000, Transduction Laboratories, Lexington, Ky.), rabbit anti-PARP polyclonal antibody (1:10000, Enzyme Systems Products) or mouse anti-cytochrome c mAb (1:5000, PharMingen, San Diego, Calif.). Goat anti-mouse IgG or goat anti-rabbit IgG (1:5000, Santa Cruz Biotechnology) followed by ECL (Amersham) was used for detection.
Mitochondria isolated from SHEP cells transfected with bcl-2, Bcl-XL or a neontycin resistance vector only (Neo) were treated with 10 μg/ml betulinic acid. […]

In assay [2] the test system is FLICE, CPP32 and PARP in SH-EP neuroblastoma cells. The experiment in a line: Western blot of FLICE (caspase-8), CPP32 (caspase-3) and PARP cleavage. The class given is cell-based, human. On the procedure:
Cells were lysed for 30 min at 4° C. in PBS with 0.5% Triton X (Serva, Heidelberg, Germany) and 1 mM phenylmethylsulfonyl fluoride (Sigma, Deisenhofen, Germany) followed by high-speed centrifugation. Membrane proteins were eluted in buffer containing 0.1 M glycine. PH 3.0 and 1.5 M Tris, pH 8.8. Protein concentration was assayed using bicinchoninic acid (Pierce Chemical Co., Rockford, Ill.). Forty μg of protein per lane were separated by 12% SDS-PAGE and electroblotted onto nitrocellulose (Amersham, Braunschweig, Germany). Equal protein loading was controlled by Ponceau red staining of membranes. After blocking for 1 h in PBS supplemented with 2% BSA (Sigma) and 0.1% Tween 20 (Sigma), immunodetection of FLICE, CPP32, PARP, Bax, Bcl-x, Bcl-2, and p53 protein was done using mouse anti-FLICE monoclonal antibody C15 (1:5 dilution of hybridoma supernatant), mouse anti-CPP32 monoclonal antibody (1:1000, Transduction Laboratories, Lexington, KY), rabbit anti-PARP polyclonal antibody (1:10000, Enzyme Systems Products), rabbit anti-Bax polyclonal antibody (1:500, Calbiochem, Bad Soden, Germany), rabbit anti-Bcl-x polyclonal antibody (1:1000, Santa Cruz Biotechnology, Santa Cruz, Calif.), mouse anti-p53 monoclonal antibody (1:10000, Transduction Laboratories), and goat anti-mouse 1gG or goat antirabbit IgG (1:5000, Santa Cruz Biotechnology), ECL (Amersham) was used for detection.
FIG. 2B and FIG. 2C show the cleavage of FLICE, CPP32 and PARP. SH-EP neuroblastoma cells were treated with 10 μg/ml betulinic acid for indicated times or with 0.5 μg/ml doxorubicin for 24 h. Forty μg of protein per lane, isolated from cell lysates, were separated by 12% SDS-PAGE, Immunodetection of FLICE (FIG. 2B). CPP32 (FIG. 2C), and PARP (C) proteins was performed by mouse anti-FLICE monoclonal antibody, mouse anti-CPP32 monoclonal antibody, or rabbit anti-PARP polyclonal antibody and ECL.
SH-EP neuroblastoma cells were treated with 10 μg/ml betulinic acid for 24 h with or without 60 μM zVAD-frnk. Western blot analysis for FLICE and PARP cleavage was performed as described for FIG. 2B.
Cells were lysed for 30 mm at 4° C. in PBS with 0.5% Triton X (Serva, Heidelberg, Germany) and 1 mM PMSF (Sigma, Deisenhofen, Germany) followed by high-speed centrifugation. Membrane proteins were eluted in buffer containing 0.1 M glycine, pH 3.0 and 1.5 M Tris, pH 8.8. Protein concentration was assayed using bicinchoninic acid (Pierce, Rockford, Ill.). 40 μg protein per lane was separated by 12% or 15% SDS-PAGE and electroblotted onto nitrocellulose (Amersham, Braunschweig, Germany). Equal protein loading was controlled by Ponceau red staining of membranes. […]
For determination of mitochondrial membrane potential, cells (5×10^5/ml) were incubated with 3,3′-dihexyloxacarbocyanide iodide (DiOC6(3), 40 nM, Molecular Probes, Inc., Eugene, Oreg.) for 15 min at 37° C. and analyzed on a flow cytometer (FACScan) (Zamzarni et al., 1996 J. Exp. Med. 183:1533-44). […]
A general note: A western blot detects proteins with antibodies after separation by electrophoresis.

Setting [3] is: 0.5 μg/ml Doxo or 10 μg/ml Bet A, 24 h, FIG. 14A.

In the case of `CO[C@H](C/C=C\C=C\CC/C=C/C[C@H](C)/C=C/C(=C\C(=O)O)CC(=O)O)/C(C)=C\C=C(/C)C(=O)O` [bongkrekic acid], in assay [1], the “effect of inhibitor on betulinic acid-driven release of cytochrome c” value was “blocked”.

As to `COc1cccc2c1C(=O)c1c(O)c3c(c(O)c1C2=O)C[C@@](O)(C(=O)CO)C[C@@H]3O[C@H]1C[C@H](N)[C@H](O)[C@H](C)O1` [doxorubicin], in assay [2] (setting [3]), the “caspase-3 (and PARP) processing in Bcl-2 or Bcl-XL overexpressing cells” value was “inhibited in Bcl-2 and Bcl-XL transfected cells”; the “caspase-8 processing in Bcl-2 or Bcl-XL overexpressing cells” value was “cleaved into p43 and p41 intermediates and the active p18 subunit, regardless of Bcl-2 or Bcl-XL overexpression”. Also, the “caspase cleavage in cells sorted into ΔΨm^high and ΔΨm^low” value in assay [2] (0.5 μg/ml Doxorubicin or 10 μg/ml Bet A, 18 h, FIG. 14B-2) is “CD95-L induction and cleavage of caspase-8 was found in both ΔΨm^high and ΔΨm^low cells”. Also, the “cleavage of FLICE” value in assay [2] (10 μg/ml betulinic acid, 0.5 μg/ml doxorubicin 24 h, FIG. 2B) is given as “stimulated FLICE cleavage”.

`COC(=O)C[C@H](NC(=O)[C@H](C)NC(=O)[C@@H](NC(=O)OCc1ccccc1)C(C)C)C(=O)CF` [zVAD-fmk, benzyloxycarbonyl-Val-Ala-Asp-Fluoromethylketone] (Cbz-Val-Ala-Asp(OMe)-CH2F): the “effect of inhibitor on betulinic acid-induced cleavage of FLICE and PARP” value in assay [2] (60 μM zVAD-fmk, 10 μg/ml betulinic acid 24 h, FIG. 2E) was “inhibited cleavage of FLICE and PARP”.
